Measurements as given in patent US20130116263A1, “PAK INHIBITORS FOR THE TREATMENT OF CELL PROLIFERATIVE DISORDERS” (AFRAXIS, INC., priority 2011, published 2013).
Like-named read-outs stand apart in the source and are kept apart here.

How the values were obtained:
Assay type in all cases: biochemical
PAK3 = PAK3 (Homo sapiens, UniProt O75914); assay: In vitro PAK inhibition assay (Z'-LYTE, SelectScreen), PAK3
Experimental: (§1) Compounds are screened in 1% DMSO (final) in the well. For 10 point titrations, 3-fold serial dilutions are conducted. All Peptide/Kinase Mixtures are diluted to a 2× working concentration in the appropriate Kinase Buffer
The 2×PAK3/Ser/Thr 20 mixture is prepared in 50 mM HEPES pH 7.5, 0.01% BRIJ-35, 10 mM MgCl2, 1 mM EGTA.
(§2) 1. Add the following solutions to a well in a 384-well plate: • 2.5 μL of 4× Test Compound OR (100 nL 100× Test Compound plus 2.4 μL kinase buffer) • 5 μL of 2× Peptide/Kinase (PAK) Mixture • 2.5 μL of 4×ATP Solution
(§3) 3. Incubate the PAK Kinase Reaction at room temperature for 60-minutes
(§4) 4. Add 5 μL of Development Reagent Solution to each well
(§5) 6. Incubate the Development Reaction for 60-minutes
(§6) 7. Determine the fluorescence using a fluorescence plate reader
(§7) SelectScreen® Kinase Profiling Service uses XLfit from IDBS.
(§8) The representative IC50 value with a known inhibitor for each kinase was determined at the ATP bin nearest to the ATP Km app.

PAK1 = PAK1 (Homo sapiens, UniProt Q13153); assay: In vitro PAK inhibition assay (Z'-LYTE, SelectScreen), PAK1; conditions: read-out: PAK1 IC50
PAK1, sequence (Q13153 whole entry): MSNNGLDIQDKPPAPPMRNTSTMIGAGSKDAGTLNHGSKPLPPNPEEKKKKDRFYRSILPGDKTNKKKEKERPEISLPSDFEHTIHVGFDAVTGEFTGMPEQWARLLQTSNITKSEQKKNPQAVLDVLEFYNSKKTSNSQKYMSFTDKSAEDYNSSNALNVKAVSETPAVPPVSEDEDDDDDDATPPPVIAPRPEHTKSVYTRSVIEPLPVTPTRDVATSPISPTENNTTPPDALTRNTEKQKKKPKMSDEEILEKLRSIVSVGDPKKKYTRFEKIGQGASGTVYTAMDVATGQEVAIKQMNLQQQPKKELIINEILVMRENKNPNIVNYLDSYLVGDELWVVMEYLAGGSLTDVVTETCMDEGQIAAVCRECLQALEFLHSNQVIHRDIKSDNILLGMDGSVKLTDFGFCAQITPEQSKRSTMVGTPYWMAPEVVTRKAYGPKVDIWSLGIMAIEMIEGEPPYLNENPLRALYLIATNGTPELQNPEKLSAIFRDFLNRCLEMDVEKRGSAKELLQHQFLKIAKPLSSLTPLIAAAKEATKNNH
Experimental: as §1
The 2×PAK1/Ser/Thr 19 mixture is prepared in 50 mM HEPES pH 7.5, 0.01% BRIJ-35, 10 mM MgCl2, 1 mM EGTA.
as §2, §3, §4, §5, §6, §7, §8

PAK4 = PAK4 (Homo sapiens, UniProt O96013); assay: In vitro PAK inhibition assay (Z'-LYTE, SelectScreen), PAK4
PAK4, sequence (O96013 whole entry): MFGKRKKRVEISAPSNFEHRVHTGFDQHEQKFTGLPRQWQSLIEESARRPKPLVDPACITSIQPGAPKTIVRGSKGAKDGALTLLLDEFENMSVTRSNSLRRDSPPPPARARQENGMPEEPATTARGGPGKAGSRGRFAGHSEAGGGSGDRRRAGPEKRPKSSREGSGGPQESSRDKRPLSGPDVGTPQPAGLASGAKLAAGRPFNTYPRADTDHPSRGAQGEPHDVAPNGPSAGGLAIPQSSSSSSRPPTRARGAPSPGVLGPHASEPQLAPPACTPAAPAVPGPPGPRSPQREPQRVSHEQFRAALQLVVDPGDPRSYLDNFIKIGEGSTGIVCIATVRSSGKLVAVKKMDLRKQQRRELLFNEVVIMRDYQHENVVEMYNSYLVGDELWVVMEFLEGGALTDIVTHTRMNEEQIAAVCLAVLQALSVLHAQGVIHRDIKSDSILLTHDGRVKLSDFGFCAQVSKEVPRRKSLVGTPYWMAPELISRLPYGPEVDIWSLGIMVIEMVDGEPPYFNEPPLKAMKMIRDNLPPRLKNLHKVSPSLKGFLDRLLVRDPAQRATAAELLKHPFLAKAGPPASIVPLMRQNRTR
Experimental: as §1
The 2×PAK-4/Ser/Thr 20 mixture is prepared in 50 mM HEPES pH 7.5, 0.01% BRIJ-35, 10 mM MgCl2, 1 mM EGTA. The final 10 μL Kinase Reaction consists of 0.1-0.75 ng PAK-4 and 2 μM Ser/Thr 20 in 50 mM HEPES pH 7.5, 0.01% BRIJ-35, 10 mM MgCl2, 1 mM EGTA. After the 1 hour Kinase Reaction incubation, 5 μL of a 1:256 dilution of Development Reagent A is added.
as §2, §3, §4, §5, §6
SelectScreen® Kinase Profiling Service uses XLfit from IDBS. The dose response curve is curve fit to model number 205 (sigmoidal dose-response model).
The table below provides specifications and data around each kinase. The representative IC50 value with a known inhibitor for each kinase was determined at the ATP bin nearest to the ATP Km app.

PAK2 (PAK65) = PAK2 (PAK65) (Homo sapiens, UniProt Q13177); assay: In vitro PAK inhibition assay (Z'-LYTE, SelectScreen), PAK2; conditions: read-out: PAK2 IC50
PAK2 (PAK65), sequence (Q13177 whole entry): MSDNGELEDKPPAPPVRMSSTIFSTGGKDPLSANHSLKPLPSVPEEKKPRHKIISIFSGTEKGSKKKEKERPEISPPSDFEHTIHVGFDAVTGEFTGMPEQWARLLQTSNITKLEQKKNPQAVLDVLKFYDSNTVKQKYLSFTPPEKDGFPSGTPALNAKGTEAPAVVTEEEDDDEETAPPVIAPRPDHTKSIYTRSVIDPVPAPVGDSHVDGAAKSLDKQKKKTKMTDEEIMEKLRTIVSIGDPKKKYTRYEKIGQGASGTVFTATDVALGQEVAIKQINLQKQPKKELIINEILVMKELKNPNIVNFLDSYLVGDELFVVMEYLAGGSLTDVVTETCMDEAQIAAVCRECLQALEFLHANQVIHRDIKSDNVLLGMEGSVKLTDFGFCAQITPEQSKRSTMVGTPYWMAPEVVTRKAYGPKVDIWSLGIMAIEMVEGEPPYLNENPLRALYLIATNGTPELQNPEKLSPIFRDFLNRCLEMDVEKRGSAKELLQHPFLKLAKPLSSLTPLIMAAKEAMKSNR
Experimental: as §1
The 2×PAK2 (PAK65)/Ser/Thr 20 mixture is prepared in 50 mM HEPES pH 7.5, 0.01% BRIJ-35, 10 mM MgCl2, 1 mM EGTA. The final 10 μL Kinase Reaction consists of 0.29-6 ng PAK2 (PAK65) and 2 μM Ser/Thr 20 in 50 mM HEPES pH 7.5, 0.01% BRIJ-35, 10 mM MgCl2, 1 mM EGTA.
as §2, §3, §4, §5, §6, §7, §8

PAK3, sequence (O75914 1-544 isoform O75914-2): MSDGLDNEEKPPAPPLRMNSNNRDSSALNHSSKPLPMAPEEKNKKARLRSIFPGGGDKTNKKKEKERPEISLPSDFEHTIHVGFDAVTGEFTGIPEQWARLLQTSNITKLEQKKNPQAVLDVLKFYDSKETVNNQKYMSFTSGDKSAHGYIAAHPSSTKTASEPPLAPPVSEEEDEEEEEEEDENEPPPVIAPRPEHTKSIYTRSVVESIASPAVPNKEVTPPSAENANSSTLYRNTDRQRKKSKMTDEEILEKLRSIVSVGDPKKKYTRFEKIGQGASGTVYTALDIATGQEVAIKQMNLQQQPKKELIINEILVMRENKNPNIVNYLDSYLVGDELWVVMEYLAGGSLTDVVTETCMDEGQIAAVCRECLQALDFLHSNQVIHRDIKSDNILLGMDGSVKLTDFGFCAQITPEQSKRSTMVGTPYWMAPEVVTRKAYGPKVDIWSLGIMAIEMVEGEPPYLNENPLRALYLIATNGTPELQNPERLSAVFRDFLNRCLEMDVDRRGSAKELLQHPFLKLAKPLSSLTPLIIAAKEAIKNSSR

SMILES	IC50 (PAK3; read-out: PAK3 IC50)	IC50 (PAK1)	IC50 (PAK4)	IC50 (PAK2 (PAK65))	IC50 (PAK3; PAK3 IC50 (nM))
CCn1c(=O)c(-c2ccc(-c3noc(C)n3)cc2Cl)cc2cnc(NCCC3CCN(C)CC3)nc21 [Example 93]	50 to 500 nM	< 50 nM	> 5000 nM	< 50 nM	
Cc1cncc(-c2ccc(-c3cc4cnc(N[C@@H]5CCOC5)nc4n(C4CCNCC4)c3=O)c(Cl)c2)n1 [Example 105]	50 to 500 nM	50 to 500 nM	> 5000 nM	50 to 500 nM	
CCn1c(=O)c(-c2ccc(-c3ccc(C)nc3)cc2Cl)cc2cnc(N[C@@H]3CCOC3)nc21 [Example 56]	> 5000 nM	500 to 5000 nM	> 5000 nM	50 to 500 nM	
CCn1c(=O)c(-c2ccc(-c3cncc(C)n3)cc2Cl)cc2cnc(N[C@H]3CC[C@H](N)CC3)nc21 [Example 85]	50 to 500 nM	< 50 nM	> 5000 nM	< 50 nM	
COCCCn1c(=O)c(-c2ccc(-c3cncc(C)n3)cc2Cl)cc2cnc(N[C@H]3CCOC3)nc21 [Example 65]	50 to 500 nM	< 50 nM	> 5000 nM	< 50 nM	
CCn1c(=O)c(-c2cc(C)c(-c3cncc(C)n3)cc2Cl)cc2cnc(N[C@H]3CCOC3)nc21 [Example 72]	50 to 500 nM	< 50 nM	> 5000 nM	< 50 nM	
CCn1c(=O)c(-c2ccc(-c3nccnc3C)cc2Cl)cc2cnc(NC3CCN(C)C(=O)C3)nc21 (centres unmarked) [Example 35]	50 to 500 nM	50 to 500 nM	> 5000 nM	50 to 500 nM	
Cc1cncc(-c2ccc(-c3cc4cnc(NC(C)C)nc4n([C@H]4CC[C@H](N)CC4)c3=O)c(Cl)c2)n1 [Example 116]	< 50 nM	< 50 nM	500 to 5000 nM	< 50 nM	
CCn1c(=O)c(-c2ccc(-c3cncc(C)n3)cc2Cl)cc2cnc(NC3CCOCC3)nc21 [Example 7]	50 to 500 nM	< 50 nM	> 5000 nM	< 50 nM	
Cc1cncc(-c2ccc(-c3cc4cnc(N[C@@H]5CCOC5)nc4n(CCN4CCCC4)c3=O)c(Cl)c2)n1 [Example 104]	500 to 5000 nM	50 to 500 nM	> 5000 nM	50 to 500 nM	
CCn1c(=O)c(-c2ccc(-c3cncc(C)n3)cc2Cl)cc2cnc(N[C@H]3CC[C@@H](N)CC3)nc21 [Example 86]	500 to 5000 nM	50 to 500 nM	> 5000 nM	50 to 500 nM	
CCn1c(=O)c(-c2ccc(-c3cncc(C)n3)cc2Cl)cc2cnc(N[C@H]3CC[C@H](CN)CC3)nc21 [Example 87]	< 50 nM	< 50 nM	> 5000 nM	< 50 nM	
CCn1c(=O)c(-c2ccc(-c3nccnc3C)cc2Cl)cc2cnc(NC3CCS(=O)(=O)CC3)nc21 [Example 75]	500 to 5000 nM	50 to 500 nM	> 5000 nM	50 to 500 nM	
CCn1c(=O)c(-c2cc(C)c(-c3cncc(C)n3)cc2Cl)cc2cnc(N[C@@H]3CCOC3)nc21 [Example 71]	50 to 500 nM	< 50 nM	> 5000 nM	< 50 nM	
CCn1c(=O)c(-c2ccc(-c3nccnc3C)cc2Cl)cc2cnc(NC3CCN(C(C)=O)CC3)nc21 [Example 80]	500 to 5000 nM	500 to 5000 nM	> 5000 nM	50 to 500 nM	
CCn1c(=O)c(-c2ccc(-c3nccnc3C)cc2Cl)cc2cnc(NC3CCOC(C)C3)nc21 (centres unmarked) [Example 32]	50 to 500 nM	50 to 500 nM	> 5000 nM	< 50 nM	
Cc1cncc(-c2ccc(-c3cc4cnc(N[C@@H]5CCOC5)nc4n(C4CCN(C)CC4)c3=O)c(Cl)c2)n1 [Example 107]	500 to 5000 nM	50 to 500 nM	> 5000 nM	50 to 500 nM	
Cc1cncc(-c2ccc(-c3cc4cnc(N[C@H]5CCOC5)nc4n(C4CCNCC4)c3=O)c(Cl)c2)n1 [Example 106]	50 to 500 nM	50 to 500 nM	> 5000 nM	50 to 500 nM	
CCn1c(=O)c(-c2ccc(-c3nccnc3C)cc2Cl)cc2cnc(NC3CCNCC3)nc21 [Example 79]	500 to 5000 nM	500 to 5000 nM	> 5000 nM	500 to 5000 nM	

SMILES	IC50 (PAK3; read-out: PAK3 IC50)	IC50 (PAK1)	IC50 (PAK4)	IC50 (PAK2 (PAK65))	IC50 (PAK3; PAK3 IC50 (nM))
Cc1cncc(-c2ccc(-c3cc4cnc(N[C@H]5CCOC5)nc4n(CCCN)c3=O)c(Cl)c2)n1 [Example 98]	< 50 nM	< 50 nM	> 5000 nM	< 50 nM	
CCn1c(=O)c(-c2ccc(-c3cncc(C)n3)cc2Cl)cc2cnc(NCCC3CCN(C)CC3)nc21 [Example 67]			> 5000 nM		50 to 500 nM
CCn1c(=O)c(-c2ccc(-c3nccnc3C)cc2Cl)cc2cnc(NCCC3CCNCC3)nc21 [Example 136]	50 to 500 nM	< 50 nM	> 5000 nM	< 50 nM	
CCn1c(=O)c(-c2ccc(-c3nccnc3C)cc2Cl)cc2cnc(NC3CCN(C)C3)nc21 (centres unmarked) [Example 78, 6-(2-chloro-4-(3-methylpyrazin-2-yl)phenyl)-8-ethyl-2-((1-methylpyrrolidin-3-yl)amino)pyrido[2,3-d]pyrimidin-7(8H)-one]	500 to 5000 nM	50 to 500 nM	> 5000 nM	50 to 500 nM	
O=c1c(-c2ccc(-c3cccnc3)cc2Cl)cc2cnc(NC3CCOCC3)nc2n1Cc1ccccc1C(F)(F)F [Example 22]	50 to 500 nM	50 to 500 nM	> 5000 nM	< 50 nM	
CCn1c(=O)c(-c2ccc(-c3cncc(C)c3)cc2Cl)cc2cnc(N[C@@H]3CCOC3)nc21 [Example 61]	500 to 5000 nM	50 to 500 nM	> 5000 nM	50 to 500 nM	
Cc1nccnc1-c1ccc(-c2cc3cnc(NC4CCOCC4)nc3n(Cc3ccccc3)c2=O)c(Cl)c1 [Example 16]	50 to 500 nM	< 50 nM	> 5000 nM	< 50 nM	
CCn1c(=O)c(-c2ccc(-c3nccnc3C)cc2Cl)cc2cnc(NC3CCN(C)CC3)nc21 [Example 5]	500 to 5000 nM	500 to 5000 nM	> 5000 nM	500 to 5000 nM	
CCn1c(=O)c(-c2ccc(-c3cncc(C)n3)cc2Cl)cc2cnc(NC3CCC(CCN)CC3)nc21 (centres unmarked) [Example 134]	50 to 500 nM	< 50 nM	> 5000 nM	< 50 nM	
CCn1c(=O)c(-c2ccc(-c3nccnc3C)cc2Cl)cc2cnc(NC3CCNC3)nc21 (centres unmarked) [Example 83]	500 to 5000 nM	50 to 500 nM	> 5000 nM	50 to 500 nM	
Cc1nccnc1-c1ccc(-c2cc3cnc(N[C@@H]4CCOC4)nc3n(Cc3ccccn3)c2=O)c(Cl)c1 [Example 123]	50 to 500 nM	50 to 500 nM	> 5000 nM	< 50 nM	
Cc1cncc(-c2ccc(-c3cc4cnc(NC5CCOCC5)nc4n(Cc4ccccc4Cl)c3=O)c(Cl)c2)n1 [Example 42]	50 to 500 nM	< 50 nM	> 5000 nM	50 to 500 nM	
Cc1nccnc1-c1ccc(-c2cc3cnc(NC4CC4)nc3n([C@H]3CC[C@H](N)CC3)c2=O)c(Cl)c1 [Example 119]	< 50 nM	< 50 nM	> 5000 nM	< 50 nM	
Cc1nccnc1-c1ccc(-c2cc3cnc(N[C@H]4CCOC4)nc3n(Cc3ccccn3)c2=O)c(Cl)c1 [Example 125]	50 to 500 nM	< 50 nM	> 5000 nM	< 50 nM	
CCn1c(=O)c(-c2ccc(-c3nccnc3C)cc2Cl)cc2cnc(N[C@H]3CCOC(C)(C)C3)nc21 (stereo in doubt) [Example 77]	50 to 500 nM	< 50 nM	> 5000 nM	< 50 nM	
Cc1cncc(-c2ccc(-c3cc4cnc(NC5CCCC5)nc4n([C@H]4CC[C@H](N)CC4)c3=O)c(Cl)c2)n1 [Example 118]	< 50 nM	< 50 nM	500 to 5000 nM	< 50 nM	
CCn1c(=O)c(-c2ccc(-c3cncc(C)n3)cc2Cl)cc2cnc(NCCC3CCNCC3)nc21 [Example 135]	< 50 nM	< 50 nM	> 5000 nM	< 50 nM	
CCn1c(=O)c(-c2cc(C)c(-c3noc(C)n3)cc2Cl)cc2cnc(N[C@@H]3CCOC3)nc21 [Example 92]	50 to 500 nM				
